# From the supplement of paper PMC10307832
# What was measured:
# Assay in all cases: relative viability (nuclei count vs DMSO), 5 days (fraction); higher = more cells survive
# NCI-H727 = test system: NCI-H727
# Summary of the method: (§1)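 A single step with final 0.05% Triton X-100, 1% formaldehyde and 1 ug/ml Hoechst fixed the cells and stained nuclei 5 days after treatment. Lung cancer cell lines in 1536-well plates had been treated by pin tool the day after seeding with one drug alone or a fixed anchor-drug dose plus five library-drug doses (not always all listed) in √10 steps, and nuclei were counted on 4× images. Relative viability is the ratio of nuclei in treated wells to nuclei in vehicle wells, taken as the median of duplicate plates.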
# EMC-BAC-2 = test system: EMC-BAC-2
# Summary of the method: as §1
# PC-3 [JPC-3] = test system: PC-3 [JPC-3]
# Summary of the method: as §1
# NCI-H3122 = test system: NCI-H3122
# Summary of the method: as §1
# HARA = test system: HARA
# Summary of the method: as §1
# NCI-H2228 = test system: NCI-H2228
# Summary of the method: as §1
# NCI-H1944 = test system: NCI-H1944
# Summary of the method: as §1
# NCI-H1792 = test system: NCI-H1792
# Summary of the method: as §1
# LK-2 = test system: LK-2
# Summary of the method: as §1
# NCI-H322M = test system: NCI-H322M
# Summary of the method: as §1
# ABC-1 = test system: ABC-1
# Summary of the method: as §1
# SK-MES-1 = test system: SK-MES-1
# Summary of the method: as §1
# LXF-289 = test system: LXF-289
# Summary of the method: as §1
# NCI-H596 = test system: NCI-H596
# Summary of the method: as §1
# NCI-H2170 = test system: NCI-H2170
# Summary of the method: as §1
# A-427 = test system: A-427
# Summary of the method: as §1
# NCI-H2009 = test system: NCI-H2009
# Summary of the method: as §1
# NCI-H1993 = test system: NCI-H1993
# Summary of the method: as §1
# HOP-62 = test system: HOP-62
# Summary of the method: as §1
# SW 1573 = test system: SW 1573
# Summary of the method: as §1
smiles,measurement,setting,value
COc1cc2nccc(Oc3ccc(NC(=O)Nc4cc(C)on4)c(Cl)c3)c2cc1OC [Tivozanib] + CS(=O)(=O)CCNCc1ccc(-c2ccc3ncnc(Nc4ccc(OCc5cccc(F)c5)c(Cl)c4)c3c2)o1 [Lapatinib] (partner 2 µM),relative viability,NCI-H727; first compound 0.005 µM,0.676
same,relative viability,NCI-H727; first compound 0.01581 µM,0.901
same,relative viability,NCI-H727; first compound 0.05 µM,0.957
same,relative viability,NCI-H727; first compound 0.5 µM,0.787
same,relative viability,EMC-BAC-2; first compound 0.005 µM,0.954
same,relative viability,EMC-BAC-2; first compound 0.01581 µM,0.875
same,relative viability,EMC-BAC-2; first compound 0.05 µM,0.871
same,relative viability,EMC-BAC-2; first compound 0.1581 µM,0.675
same,relative viability,EMC-BAC-2; first compound 0.5 µM,0.908
same,relative viability,PC-3 [JPC-3]; first compound 0.005 µM,0.429
same,relative viability,PC-3 [JPC-3]; first compound 0.01581 µM,0.453
same,relative viability,PC-3 [JPC-3]; first compound 0.05 µM,0.509
same,relative viability,PC-3 [JPC-3]; first compound 0.1581 µM,0.378
same,relative viability,PC-3 [JPC-3]; first compound 0.5 µM,0.433
same,relative viability,NCI-H3122; first compound 0.005 µM,0.972
same,relative viability,NCI-H3122; first compound 0.01581 µM,0.979
same,relative viability,NCI-H3122; first compound 0.05 µM,0.989
same,relative viability,NCI-H3122; first compound 0.1581 µM,1.16
same,relative viability,NCI-H3122; first compound 0.5 µM,1.03
same,relative viability,HARA; first compound 0.005 µM,0.615
same,relative viability,HARA; first compound 0.01581 µM,0.724
same,relative viability,HARA; first compound 0.05 µM,0.79
same,relative viability,HARA; first compound 0.1581 µM,0.641
same,relative viability,HARA; first compound 0.5 µM,0.831
same,relative viability,NCI-H2228; first compound 0.005 µM,1.07
same,relative viability,NCI-H2228; first compound 0.01581 µM,1.1
same,relative viability,NCI-H2228; first compound 0.05 µM,1.07
same,relative viability,NCI-H2228; first compound 0.1581 µM,1.03
same,relative viability,NCI-H2228; first compound 0.5 µM,0.948
same,relative viability,NCI-H1944; first compound 0.005 µM,0.826
same,relative viability,NCI-H1944; first compound 0.01581 µM,0.888
same,relative viability,NCI-H1944; first compound 0.05 µM,0.758
same,relative viability,NCI-H1944; first compound 0.1581 µM,0.666
same,relative viability,NCI-H1944; first compound 0.5 µM,0.841
same,relative viability,NCI-H1792; first compound 0.005 µM,0.901
same,relative viability,NCI-H1792; first compound 0.01581 µM,0.925
same,relative viability,NCI-H1792; first compound 0.05 µM,0.922
same,relative viability,NCI-H1792; first compound 0.1581 µM,0.841
same,relative viability,NCI-H1792; first compound 0.5 µM,1.01
same,relative viability,LK-2; first compound 0.005 µM,0.951
same,relative viability,LK-2; first compound 0.01581 µM,0.842
same,relative viability,LK-2; first compound 0.05 µM,0.918
same,relative viability,LK-2; first compound 0.1581 µM,0.742
same,relative viability,LK-2; first compound 0.5 µM,0.683
same,relative viability,NCI-H322M; first compound 0.005 µM,0.574
same,relative viability,NCI-H322M; first compound 0.01581 µM,0.649
same,relative viability,NCI-H322M; first compound 0.05 µM,0.615
same,relative viability,NCI-H322M; first compound 0.1581 µM,0.525
same,relative viability,NCI-H322M; first compound 0.5 µM,0.65
same,relative viability,ABC-1; first compound 0.005 µM,1.33
same,relative viability,ABC-1; first compound 0.01581 µM,1.15
same,relative viability,ABC-1; first compound 0.05 µM,1.26
same,relative viability,ABC-1; first compound 0.1581 µM,1.16
same,relative viability,ABC-1; first compound 0.5 µM,1.22
same,relative viability,SK-MES-1; first compound 0.005 µM,0.421
same,relative viability,SK-MES-1; first compound 0.01581 µM,0.446
same,relative viability,SK-MES-1; first compound 0.05 µM,0.5
same,relative viability,SK-MES-1; first compound 0.1581 µM,0.437
same,relative viability,SK-MES-1; first compound 0.5 µM,0.509
same,relative viability,LXF-289; first compound 0.005 µM,0.888
same,relative viability,LXF-289; first compound 0.01581 µM,0.886
same,relative viability,LXF-289; first compound 0.05 µM,0.902
same,relative viability,LXF-289; first compound 0.1581 µM,0.946
same,relative viability,LXF-289; first compound 0.5 µM,0.905
same,relative viability,NCI-H596; first compound 0.005 µM,0.998
same,relative viability,NCI-H596; first compound 0.01581 µM,1.04
same,relative viability,NCI-H596; first compound 0.05 µM,1.04
same,relative viability,NCI-H596; first compound 0.1581 µM,1.04
same,relative viability,NCI-H596; first compound 0.5 µM,1.08
same,relative viability,NCI-H2170; first compound 0.005 µM,0.252
same,relative viability,NCI-H2170; first compound 0.01581 µM,0.296
same,relative viability,NCI-H2170; first compound 0.05 µM,0.266
same,relative viability,NCI-H2170; first compound 0.5 µM,0.289
same,relative viability,A-427; first compound 0.005 µM,1.02
same,relative viability,A-427; first compound 0.01581 µM,1.04
same,relative viability,A-427; first compound 0.05 µM,1.04
same,relative viability,A-427; first compound 0.1581 µM,0.96
same,relative viability,A-427; first compound 0.5 µM,1.06
same,relative viability,NCI-H2009; first compound 0.005 µM,0.88
same,relative viability,NCI-H2009; first compound 0.01581 µM,1.1
same,relative viability,NCI-H2009; first compound 0.05 µM,0.937
same,relative viability,NCI-H2009; first compound 0.1581 µM,0.896
same,relative viability,NCI-H2009; first compound 0.5 µM,0.909
same,relative viability,NCI-H1993; first compound 0.005 µM,0.774
same,relative viability,NCI-H1993; first compound 0.01581 µM,0.775
same,relative viability,NCI-H1993; first compound 0.05 µM,0.758
same,relative viability,NCI-H1993; first compound 0.1581 µM,0.713
same,relative viability,NCI-H1993; first compound 0.5 µM,0.739
same,relative viability,HOP-62; first compound 0.005 µM,0.932
same,relative viability,HOP-62; first compound 0.01581 µM,0.944
same,relative viability,HOP-62; first compound 0.05 µM,0.994
same,relative viability,HOP-62; first compound 0.1581 µM,0.787
same,relative viability,HOP-62; first compound 0.5 µM,0.87
same,relative viability,SW 1573; first compound 0.005 µM,0.909
same,relative viability,SW 1573; first compound 0.01581 µM,1.25
same,relative viability,SW 1573; first compound 0.05 µM,1.16
same,relative viability,SW 1573; first compound 0.1581 µM,0.856
same,relative viability,SW 1573; first compound 0.5 µM,1.08
